Data: article PMC3758386 (Psychopharmacology, 2013)

Tests used:
Adenosine A1 = biological target: T1, Adenosine A1 (Homo sapiens, UniProt P30542); experiment: receptor screen, Adenosine A1; assay type: binding; conditions: [3H]DPCPX, inactive = displacement at 10,000 nM less than 75%
T1 sequence (P30542 1-326): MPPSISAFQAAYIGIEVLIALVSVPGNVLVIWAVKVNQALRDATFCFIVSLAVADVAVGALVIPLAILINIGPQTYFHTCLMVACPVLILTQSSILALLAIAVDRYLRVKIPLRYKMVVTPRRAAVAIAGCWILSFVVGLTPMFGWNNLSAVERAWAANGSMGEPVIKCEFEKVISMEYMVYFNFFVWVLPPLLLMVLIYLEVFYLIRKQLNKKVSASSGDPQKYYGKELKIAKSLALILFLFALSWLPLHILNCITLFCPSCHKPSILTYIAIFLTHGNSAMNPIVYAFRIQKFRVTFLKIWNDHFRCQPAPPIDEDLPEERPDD

[1] = tested on: Glutamate, NMDA, phencyclidine; experiment: receptor screen, Glutamate, NMDA, phencyclidine; assay type: binding, Rat; conditions: [3H]TCP, inactive = displacement at 10,000 nM less than 75%
Muscarinic M2 = biological target: T2, Muscarinic M2 (Homo sapiens, UniProt P08172); experiment: receptor screen, Muscarinic M2; assay type: binding; conditions: read-out: Ki Muscarinic M2, [3H]N-methylscopolamine
T2 sequence (P08172 1-466): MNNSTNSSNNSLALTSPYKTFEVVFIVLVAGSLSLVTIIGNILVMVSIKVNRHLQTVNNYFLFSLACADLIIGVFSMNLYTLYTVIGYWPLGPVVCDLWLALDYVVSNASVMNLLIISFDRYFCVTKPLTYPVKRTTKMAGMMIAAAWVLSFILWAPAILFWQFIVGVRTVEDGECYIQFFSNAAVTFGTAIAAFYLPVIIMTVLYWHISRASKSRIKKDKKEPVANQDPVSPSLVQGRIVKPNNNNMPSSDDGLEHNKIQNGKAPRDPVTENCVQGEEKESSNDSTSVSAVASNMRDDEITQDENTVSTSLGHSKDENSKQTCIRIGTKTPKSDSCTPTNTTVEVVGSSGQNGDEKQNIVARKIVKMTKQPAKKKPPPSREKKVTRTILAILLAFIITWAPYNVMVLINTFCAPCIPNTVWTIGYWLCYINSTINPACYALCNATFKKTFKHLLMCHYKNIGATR

Muscarinic M3 = Muscarinic M3 (Homo sapiens, UniProt P20309); experiment: receptor screen, Muscarinic M3; assay type: binding; conditions: read-out: Ki Muscarinic M3, [3H]N-methylscopolamine
Sequence of Muscarinic M3 (P20309 whole entry): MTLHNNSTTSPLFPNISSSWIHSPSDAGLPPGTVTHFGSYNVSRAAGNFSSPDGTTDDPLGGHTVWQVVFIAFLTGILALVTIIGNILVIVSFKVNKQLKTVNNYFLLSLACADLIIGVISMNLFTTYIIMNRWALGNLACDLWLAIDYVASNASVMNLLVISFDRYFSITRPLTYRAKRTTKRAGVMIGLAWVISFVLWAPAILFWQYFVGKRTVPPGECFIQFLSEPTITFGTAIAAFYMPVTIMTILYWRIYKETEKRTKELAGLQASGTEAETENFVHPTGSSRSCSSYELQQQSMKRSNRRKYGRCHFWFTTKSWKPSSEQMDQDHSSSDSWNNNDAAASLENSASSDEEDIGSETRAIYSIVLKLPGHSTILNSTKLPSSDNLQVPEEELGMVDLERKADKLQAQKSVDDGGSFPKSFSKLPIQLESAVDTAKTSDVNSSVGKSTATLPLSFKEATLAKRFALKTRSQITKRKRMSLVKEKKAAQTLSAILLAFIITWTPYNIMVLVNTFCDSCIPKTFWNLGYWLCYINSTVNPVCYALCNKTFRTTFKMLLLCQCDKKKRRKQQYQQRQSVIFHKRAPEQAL

K+ Channel hERG = K+ Channel hERG (Homo sapiens, UniProt Q12809); experiment: receptor screen, K+ Channel hERG; assay type: binding; conditions: read-out: Ki K+ Channel hERG; receptor screen, [3H]Astemizole
Sequence of K+ Channel hERG (Q12809 whole entry): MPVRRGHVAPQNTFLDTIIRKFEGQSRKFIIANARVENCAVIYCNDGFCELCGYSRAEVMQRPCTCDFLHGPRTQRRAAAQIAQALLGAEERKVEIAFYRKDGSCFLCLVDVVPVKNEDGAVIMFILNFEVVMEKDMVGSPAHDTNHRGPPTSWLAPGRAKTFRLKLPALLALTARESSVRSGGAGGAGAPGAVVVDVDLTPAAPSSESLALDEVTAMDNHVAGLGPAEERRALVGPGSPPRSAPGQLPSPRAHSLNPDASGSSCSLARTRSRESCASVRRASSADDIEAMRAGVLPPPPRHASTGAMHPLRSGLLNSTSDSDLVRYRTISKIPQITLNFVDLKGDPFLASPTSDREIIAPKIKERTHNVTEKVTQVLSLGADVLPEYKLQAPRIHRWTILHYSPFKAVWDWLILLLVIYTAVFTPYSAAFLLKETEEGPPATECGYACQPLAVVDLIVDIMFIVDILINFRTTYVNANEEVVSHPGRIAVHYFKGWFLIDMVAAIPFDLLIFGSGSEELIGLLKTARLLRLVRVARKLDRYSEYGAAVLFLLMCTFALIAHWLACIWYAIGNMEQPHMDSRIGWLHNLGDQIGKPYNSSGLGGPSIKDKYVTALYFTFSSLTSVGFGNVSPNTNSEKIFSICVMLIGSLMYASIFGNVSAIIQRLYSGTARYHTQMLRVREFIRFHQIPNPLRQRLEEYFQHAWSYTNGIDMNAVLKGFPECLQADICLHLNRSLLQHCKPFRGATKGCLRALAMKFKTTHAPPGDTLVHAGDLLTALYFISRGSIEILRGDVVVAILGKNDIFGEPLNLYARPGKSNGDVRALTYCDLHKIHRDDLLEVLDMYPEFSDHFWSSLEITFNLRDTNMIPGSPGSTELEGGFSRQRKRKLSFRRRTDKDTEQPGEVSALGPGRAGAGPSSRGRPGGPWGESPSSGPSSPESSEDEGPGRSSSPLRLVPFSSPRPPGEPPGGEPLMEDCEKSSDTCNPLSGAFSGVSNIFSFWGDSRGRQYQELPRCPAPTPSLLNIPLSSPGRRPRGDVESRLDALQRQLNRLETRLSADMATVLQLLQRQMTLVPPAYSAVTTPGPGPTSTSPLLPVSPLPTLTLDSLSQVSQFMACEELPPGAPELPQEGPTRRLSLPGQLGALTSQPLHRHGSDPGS

rats = experiment: Place conditioning; assay type: in vivo; conditions: rat, i.p. (1 to 10 mg/kg), injected immediately before conditioning sessions
DAT = conditions: read-out: Ki DAT; ref Newman and Katz (2009); cited from earlier work
SERT = conditions: read-out: Ki SERT; ref Woolverton et al., Psychopharmacology (2001); cited from earlier work
NET = conditions: read-out: Ki NET; ref Woolverton et al., Psychopharmacology (2001); cited from earlier work

CN1C2CCC1CC(OC(c1ccccc1)c1ccc(Cl)cc1)C2 (stereo not drawn) [4-Cl-BZT, 4′-chloro-3α-(diphenylmethoxy)tropane]
Ki Adenosine A1 (Adenosine A1): inactive
Ki Glutamate, NMDA, phencyclidine [1]: inactive
Ki (Muscarinic M2): 5.88 ± 0.63 nM
Ki (Muscarinic M3): 0.384 ± 0.043 nM
Ki (K+ Channel hERG): 804 ± 300 nM
place conditioning (time allocated to compound-paired compartment) (rats): did not increase the time allocated to the compound-paired compartment
Ki (DAT): 10.5 ± 1.21 nM
Ki (SERT): 5120 ± 395 nM
Ki (NET): 1470 ± 180 nM
